From PubChem BioAssay AID179 (DTP/NCI, 2004)
“And” between values parts separate entries of the source, which are not always exact repeats. Equal entries are not always repeated. The source made the active and inactive calls.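 The calls were made as follows: active = compounds giving half or more protection of infected cells from virus-caused growth loss, again on retest; inactive = the rest.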

Tested on: CEM cells HIV-1 protection, formazan growth assay
Assay: NCI AIDS Antiviral Assay
Conditions: for IC50: measured here: growth of uninfected CEM cells
Summary of the method: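 Category rules: moderately active means at least 50% protection on retest, and confirmed active means 100% protection reproducibly. The underlying data came from a formazan growth assay in HIV-1-infected CEM cells.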

SMILES	EC50 [µM]	IC50	outcome
O=[N+]([O-])c1ccc(OCc2nnc(CCCCCCCCc3nnc(COc4ccc([N+](=O)[O-])cc4)o3)o2)cc1	> 200	> 200 µM	
COC(=O)C1C(O)C(C)C(O)C(C)/C=C\C=C(C)C(=O)Nc2c(C)c(OC(C)=O)c3c(c2O)C(=O)C(C)=C2OCOC(=C23)C(C)=CC(C)(O)C(O)C(C)C1O (stereo unspecified)	> 324	117 µM and 162 µM	
O=c1cc(P(=O)(O)O)[nH]c(=O)[nH]1			inactive
c1ccc2c(OCCSCCCCCCCCCCSCCOc3cccc4ccccc34)cccc2c1	> 5.01	> 5.01 µM	
Cc1cc(=O)n2c(nc3cc(Cl)ccc32)s1	> 28.8	> 28.8 µM	
O=C(c1ccccc1)N1CCC(Nc2nccs2)O1 (stereo unspecified)	> 200	> 200 µM	
CCC/C(Cl)=N\OC(=O)Nc1ccc(OC(F)(F)F)cc1	> 20	5.37 µM	
CN(C)C12CCCCCCC1S(=O)(=O)C2 (stereo unspecified)	> 363	302 µM	
COc1cc(OC)cc(C2(C(=O)O)CCN(C)CC2)c1	> 891	97.7 µM	
CCN1c2cc(Br)cc3[nH]c(=S)n(c23)CCC1C (stereo unspecified)	3.72	112 µM	
OC(c1ccoc1)c1cc2ccccc2s1 (stereo unspecified)	> 200	44.7 µM	
CN(C)c1ccc(C(=C2C=CC(=[N+](C)C)C=C2)c2c(O)c(S(=O)(=O)O)cc3cc(S(=O)(=O)O)ccc23)cc1			inactive
O=S(=O)(NCCSSCCNS(=O)(=O)c1ccccc1)c1ccccc1	> 200	13.5 µM	
CC[C@@H]1OC2(C)CC(S(=O)(=O)c3ccccc3O)CC1O2 (stereo partly specified)	> 794	741 µM	
CN(C)N1C(=O)C(=O)N(c2cccc3ccccc23)C1=O	> 200	> 200 µM	
COCc1c(C)oc2c(C)c3oc(=O)cc(C)c3cc12	> 110	> 110 µM	
COc1cc(C=C2C(=O)NC(=O)NC2=O)ccc1OCc1ccccc1	> 93.3	89.1 µM	
c1ccc2c(C(c3c[nH]c4ccccc34)c3c[nH]c4ccccc34)c[nH]c2c1	0.0631	19.1 µM	
C/C(CC1C2CCCC1C2)=N\NC(N)=O (stereo unspecified)	> 100	> 100 µM	
Cc1cn(COCC(O)C[N+](=O)[O-])c(=O)[nH]c1=O (stereo unspecified)	> 200	> 200 µM	
O=C1c2ccccc2C(=O)N1C/C=N/NS(=O)(=O)c1ccc(F)cc1	> 363	> 363 µM	
COC(=O)C12C(=CCP1(C)=O)C(c1ccccc1)=NN2c1ccccc1 (stereo unspecified)	> 27.5	> 27.5 µM	
COc1cc(C(=O)O[C@H]2CCC3CCC2N3C)cc(OC)c1OC (stereo partly specified)	> 200	> 200 µM	

SMILES	EC50 [µM]	IC50	outcome
Cc1ccc2c(c1)CC1(C2=O)[C@H](c2ccccc2)C2C(=O)c3ccc(C)cc3C2[C@H]1c1ccccc1 (stereo partly specified)	> 200		
Cc1cc(S(=O)(=O)Nc2nc(Nc3ccc(Cl)cc3)nn2C)c(S)cc1Cl	> 200	83.2 µM	
COc1ccc(C2SC(N)=Nc3c2c(C)nn3C(=O)c2ccccc2O)cc1OC (stereo unspecified)	> 20	0.617 µM	
COc1ccc(OC)c2c3c(ccc12)C(c1ccccc1)OC3=O (stereo unspecified)			inactive
CCC[CH2][Sn]([CH2]CCC)([O]C(=O)c1cc(F)ccc1F)[O][Sn]([CH2]CCC)([CH2]CCC)[O]C(=O)c1cc(F)ccc1F	> 9.12	1.74 µM	
Cc1c2cc(Cl)ccc2n2c(=O)c3ccccc3[nH]c(=O)c12	> 15.8	> 15.8 µM	
NCc1ccc(-c2ccc(-c3ccc(-c4ccc(CN)s4)s3)s2)s1	> 100	72.4 µM	
O=c1nc2c(c(-c3ccccc3Cl)[nH]1)COC/C2=C\c1ccccc1Cl	> 200	89.1 µM	
O=C(NC1CCCCC1)NS(=O)(=O)c1ccc2c(c1)CCC2	> 200	> 200 µM	
C=CCN(Cc1ccncc1)C(=O)C(O)(c1ccccc1)c1ccccc1	> 200	186 µM	
NS(=O)(=O)c1nnc(NC(=O)c2cccc([N+](=O)[O-])c2)s1	> 200	> 200 µM	
COC(=O)c1nn(-c2ccc(Cl)cc2)c2nc3ccccc3c-2c1C(=O)OC	> 32.4	> 32.4 µM	
CSc1n[nH]c(=O)c2nc[nH]c12	> 245	> 245 µM	
C[N+](C)(C)CC(=O)N/N=C(/C(=O)Nc1ccc(Br)cc1)C1C(=O)NC(=O)NC1=O	> 200	> 200 µM	
CCOP(=O)(Cc1ccc(CP(=O)(OCC)OCC)n1C)OCC			inactive
NC(=O)/C(=N\NC(=O)C[n+]1ccccc1)C1NC(=O)NC1=O (stereo unspecified)	> 148	> 148 µM	
COc1cc2c3c(c1OC)-c1[nH]c4ccccc4c1C1CCCN(CC2)C31 (stereo unspecified)	> 138	15.1 µM	
N/N=C(/CS(=O)(=O)c1ccc(Cl)cc1)c1ccccc1	> 100	> 100 µM	
CSC1=Nc2ccccc2N=C(N2CCCC2)C1	4.47	> 200 µM	
CCCCCCCCCC(=O)CC(=O)c1ccc(O)cc1O	> 117	69.2 µM	
O=C(/C=C/c1ccccc1)Oc1ccc(C(=O)/C=C/c2ccc(Cl)cc2)cc1	> 100	44.7 µM	
CCSC(=O)/C=C1\CN(C(=O)OC(C)(C)C)C1C(=O)OC(C)(C)C (stereo unspecified)	> 200	1.1 µM	
O=C(NCCCNCCCCNCCCNC(=O)C(F)(F)F)C(F)(F)F	> 200	14.8 µM	

SMILES	EC50 [µM]	IC50	outcome
COc1ccc2c(N=[N+]=[N-])c(-c3ccccc3)c(=O)oc2c1			inactive
COc1cccc2c(NCCCN(C)C)c3c([N+](=O)[O-])ccc(OC)c3nc12	> 2	0.257 µM	
OCCCCCCCCCCCOc1ccc(C2OCC3(CC=CCC3)CO2)cc1 (stereo unspecified)	> 200	36.3 µM	
COc1ccc(Cl)[c]([Bi]([c]2cc(OC)ccc2Cl)[c]2cc(OC)ccc2Cl)c1	> 39.8	> 39.8 µM	
CCOC(=O)N1CCc2cc(OC)c(OC)cc2/C1=C/c1ccc(OC)c(OC)c1			inactive
O=C1NC2(CCCCC2)OC12CCCCC2	> 6.46	> 6.46 µM	
CSC1=Nc2cccnc2Nc2cscc21	> 200	1.26 µM	
O=C(O)CSCCOCCSCC(=O)O	> 708	> 708 µM	
Cc1noc(C)c1-c1onc2ccc(Cl)cc12	> 28.8	> 28.8 µM	
CCN(CC)CC(=O)Nc1ccccc1C	> 100	> 100 µM	
CC(C)(C)C1CCC2c3c([nH]c4ccccc34)C3C(=O)N(c4ccc(C#N)cc4)C(=O)C3C2C1 (stereo unspecified)	> 200	10 µM	
CN(C)CCCNc1cc[n+](C)c2cccc([N+](=O)[O-])c12	> 200	10.5 µM	
O=C1OC(=O)C2C1CC1C(=O)OC(=O)C12 (stereo unspecified)	> 1200	> 1200 µM	
O=C1/C(=C/c2ccccc2)CCCC/C1=C\c1ccccc1	> 6.92	> 6.92 µM	
COc1ccc([N+](=O)[O-])c2c(NCCCN(C)C)ccnc12	> 200	4.47 µM	
O=C(NCc1ccccc1)c1cc2ccc(O)c(O)c2cn1	> 100	1.7 µM and > 6.31 µM	
NC(=O)C(=CNc1nc(-c2ccc(Cl)c(Cl)c2)cs1)C(N)=O	> 200	102 µM	
CCOC(=O)C(=C=Cc1cccs1)C(=O)c1ccccc1	> 120	53.7 µM	
CCOC(=O)C1=C(Nc2cccc3ccccc23)OC/C1=N\NC(=O)c1ccccc1O	> 60.3	17.4 µM	
CCCCCCCCCCCCCCCCNc1ccn(C2CC(OP(=O)(O)OCC3OC(n4cc(C)c(=O)[nH]c4=O)CC3N=[N+]=[N-])C(CO)O2)c(=O)n1 (stereo unspecified)	0.182	77.6 µM	
CCOC(=O)C(NC(=O)NCc1ccc(F)cc1)C(F)(F)F (stereo unspecified)	> 200	81.3 µM	
O=C(CN1C(=O)CC(c2ccccc2)(c2ccccc2)C1=O)N1CCN(CCO)CC1	> 200	151 µM	
CCCCCCc1cc2cc(-c3csc(CC#N)n3)c(=O)oc2cc1O	> 200	> 200 µM	

SMILES	EC50 [µM]	IC50	outcome
COC1/C=C/OC2(C)Oc3c(C)c(O)c4c(O)c(cc(OCC(=O)N(C)C5CCCC5)c4c3C2=O)NC(=O)/C(C)=C/C=C/C(C)C(O)C(C)C(O)C(C)C(OC(C)=O)C1C (stereo unspecified)	> 200	28.8 µM	
N/C(=N\N=C\c1cccc2ccccc12)N/N=C/c1cccc2ccccc12	> 200	9.12 µM	
CN(C)c1ccc(/C=C(\C#N)c2ccc(F)cc2)cc1	> 20	1.07 µM	
COc1cc2c(c([N+](=O)[O-])c1)NC(=O)CCS2			inactive
COc1c(Cl)cc(C(=Cc2c(F)c(F)c(F)c(F)c2F)c2cc(Cl)c(OC)c(C(=O)O)c2)cc1C(=O)O	324	490 µM	
COC(=O)C(Cc1nc2ccccc2[nH]c1=O)/C(=N\NC(C)(C)C)C(=O)Nc1c(C)cc(Br)cc1C (stereo unspecified)	> 64.6	47.9 µM	
CC1CC(C)CN(Cc2cccnc2)C1 (stereo unspecified)			inactive
CCN(CC)c1cc2oc(=O)cc(C)c2cc1NC(=O)c1ccccc1	> 45.7	2.51 µM	
O=c1[nH]c(O)c(/C=N/C(=S)NCc2ccccc2)c(=O)[nH]1	> 200	195 µM	
COC(=O)C1C=CN(N(C)C)C2=C1C(=O)c1c(O)cccc1C2=O (stereo unspecified)	> 200	1.74 µM	
CCc1cccc(C)c1NS(=O)(=O)c1ccccc1			inactive
C=C(Cn1cnc2c(N)ncnc21)C(=O)OC	> 107	7.76 µM	
O=C1O[C@H]2C3C4CCC(C4[C@@H]2I)[C@H]13 (stereo partly specified)	> 200	> 200 µM	
O=S1(=O)CC2C(C1)C1(c3ccccc3)OC2(c2ccccc2)c2ccccc21 (stereo unspecified)			inactive
Cc1c(C(=O)c2ccccc2C(=O)O)c2ccccc2n1C			inactive
CCCCC1c2c([nH]c3ccccc23)C2C(=O)N(c3ccc(OC)cc3)C(=O)C2C1CCC (stereo unspecified)	> 200	3.55 µM	
NCCCCCC(CCN)SCC1OC(n2cnc3c(N)ncnc32)C(O)C1O (stereo unspecified)	> 200	107 µM	
Cc1cc(C(=O)N2CCN(Cc3ccccc3)CC2)c(C)o1	> 741	324 µM	
Cc1ccc2cc1NC(=O)N1CCN(CC1)C(=O)Nc1cc(ccc1C)NC(=O)N1CCN(CC1)C(=O)N2	> 3.8	> 3.8 µM	
O=C(O)/C(=C/c1ccc([N+](=O)[O-])cc1)c1ccccc1	> 490	95.5 µM	
